Test [1] addresses Tubulin beta-4A chain (Homo sapiens) (UniProt P04350).
Test [2] has as its target Dual specificity protein kinase CLK4 (Homo sapiens) (UniProt Q9HAZ1).
Test [3] has as its target EKC/KEOPS complex subunit LAGE3 (Homo sapiens) (UniProt Q14657).
Test [4] has as its target FAD synthase (Homo sapiens) (UniProt Q8NFF5).
The target of test [5] is Rootletin (Homo sapiens) (UniProt Q5TZA2).
The target in test [6] is Parathymosin (Homo sapiens) (UniProt P20962).
The target in test [7] is Phosphatidate cytidylyltransferase 2 (Homo sapiens) (UniProt O95674).
The target in test [8] is Retinoblastoma-binding protein 5 (Homo sapiens) (UniProt Q15291).
Test [9] has as its target Ras suppressor protein 1 (Homo sapiens) (UniProt Q15404).
Test [10] addresses Acetyl-CoA carboxylase 2 (Homo sapiens) (UniProt O00763).
Test [11] deals with General transcription factor IIF subunit 2 (Homo sapiens) (UniProt P13984).
In test [12] the target is Phenylalanine--tRNA ligase beta subunit (Homo sapiens) (UniProt Q9NSD9).
In test [13] the target is DnaJ homolog subfamily C member 13 (Homo sapiens) (UniProt O75165).
The target in test [14] is Transcriptional repressor CTCF (Homo sapiens) (UniProt P49711).
Test [15] addresses Histone H1.3 (Homo sapiens) (UniProt P16402).
Test [16] concerns the target Ubiquitin carboxyl-terminal hydrolase 39 (Homo sapiens) (UniProt Q53GS9).
Test [17] concerns the target Choline/ethanolaminephosphotransferase 1 (Homo sapiens) (UniProt Q9Y6K0).
Test [18] addresses Cleavage and polyadenylation specificity factor subunit 1 (Homo sapiens) (UniProt Q10570).
For test [19], the target named is E3 ubiquitin-protein ligase RBX1 (Homo sapiens) (UniProt P62877).
Test [20] concerns the target Macrophage migration inhibitory factor (Homo sapiens) (UniProt P14174).
The species entered for test [21] is Homo sapiens.
Test [22] addresses Cyclin-dependent kinase 2 (Homo sapiens) (UniProt P24941).
The target of test [23] is Testis-expressed protein 10 (Homo sapiens) (UniProt Q9NXF1).
Test [24] is filed under the species Homo sapiens. The source holds these as a separate data set.
The target in test [25] is Dolichyl-diphosphooligosaccharide--protein glycosyltransferase 48 kDa subunit (Homo sapiens) (UniProt P39656).
The species entered for test [26] is Homo sapiens. The source holds these as a separate data set.
The target in test [27] is Exportin-4 (Homo sapiens) (UniProt Q9C0E2).
For test [28], the target named is Kelch-like protein 6 (Homo sapiens) (UniProt Q8WZ60).
For test [29], the species on record is Homo sapiens. This is another data set of the same source.
In test [30] the target is Lysosomal alpha-mannosidase (Homo sapiens) (UniProt O00754).
Test [31] has as its target Very long chain fatty acid elongase 5 (Homo sapiens) (UniProt Q9NYP7).
Test [32] concerns the target AP-3 complex subunit delta-1 (Homo sapiens) (UniProt O14617).
In test [33] the target is Translocon-associated protein subunit delta (Homo sapiens) (UniProt P51571).
For test [34], the target named is Tektin-1 (Homo sapiens) (UniProt Q969V4).
Test [35] addresses Stearoyl-CoA desaturase (Homo sapiens) (UniProt O00767).
For test [36], the target named is Zinc finger CCHC domain-containing protein 8 (Homo sapiens) (UniProt Q6NZY4).
The target of test [37] is Syndecan-2 (Homo sapiens) (UniProt P34741).
Test [38] has as its target N-acetylneuraminate-9-phosphate synthase (Homo sapiens) (UniProt Q9NR45).
The target of test [39] is GDP-mannose 4,6 dehydratase (Homo sapiens) (UniProt O60547).
The target of test [40] is Thioredoxin reductase 1, cytoplasmic (Homo sapiens) (UniProt Q16881).
Test [41] concerns the target Bone marrow stromal antigen 2 (Homo sapiens) (UniProt Q10589).
For test [42], the target named is Acyl-CoA dehydrogenase family member 11 (Homo sapiens) (UniProt Q709F0).
Test [43] has as its target Ras-related protein Rab-6A (Homo sapiens) (UniProt P20340).
The target of test [44] is Palmitoyl-protein thioesterase 1 (Homo sapiens) (UniProt P50897).
Test [45] deals with Brefeldin A-inhibited guanine nucleotide-exchange protein 1 (Homo sapiens) (UniProt Q9Y6D6).
Test [46] concerns the target 3-hydroxyacyl-CoA dehydrogenase type-2 (Homo sapiens) (UniProt Q99714).
For test [47], the target named is Heterogeneous nuclear ribonucleoprotein R (Homo sapiens) (UniProt O43390).
The target in test [48] is ER lumen protein-retaining receptor 1 (Homo sapiens) (UniProt P24390).

Structures are written as SMILES.
Note: assay method not described here.

Sequence of Translocon-associated protein subunit delta (Homo sapiens) (P51571 whole entry): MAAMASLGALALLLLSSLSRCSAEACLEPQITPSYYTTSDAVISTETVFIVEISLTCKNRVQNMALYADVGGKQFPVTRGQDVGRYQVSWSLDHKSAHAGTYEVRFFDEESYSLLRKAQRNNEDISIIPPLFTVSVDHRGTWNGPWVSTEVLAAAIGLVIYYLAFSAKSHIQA
Sequence of Zinc finger CCHC domain-containing protein 8 (Homo sapiens) (Q6NZY4 whole entry, the tested form may be a part): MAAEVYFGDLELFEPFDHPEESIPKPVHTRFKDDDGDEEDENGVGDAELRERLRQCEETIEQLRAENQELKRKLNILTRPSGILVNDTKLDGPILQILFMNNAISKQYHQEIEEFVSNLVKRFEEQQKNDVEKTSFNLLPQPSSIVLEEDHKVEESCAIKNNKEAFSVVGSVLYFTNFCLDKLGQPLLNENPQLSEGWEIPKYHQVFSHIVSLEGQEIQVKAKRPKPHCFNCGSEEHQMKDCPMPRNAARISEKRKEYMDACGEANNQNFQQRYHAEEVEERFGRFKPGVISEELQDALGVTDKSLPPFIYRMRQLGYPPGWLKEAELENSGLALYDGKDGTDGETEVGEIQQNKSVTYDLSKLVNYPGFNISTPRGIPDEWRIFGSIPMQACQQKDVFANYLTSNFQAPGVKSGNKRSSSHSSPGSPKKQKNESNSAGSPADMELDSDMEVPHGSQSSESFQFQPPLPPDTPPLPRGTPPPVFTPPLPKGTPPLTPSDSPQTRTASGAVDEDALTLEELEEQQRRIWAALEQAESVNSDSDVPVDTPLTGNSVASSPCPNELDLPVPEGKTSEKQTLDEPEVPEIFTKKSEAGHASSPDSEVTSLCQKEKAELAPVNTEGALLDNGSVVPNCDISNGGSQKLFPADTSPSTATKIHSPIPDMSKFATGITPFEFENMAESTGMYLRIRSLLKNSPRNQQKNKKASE
Sequence of FAD synthase (Homo sapiens) (Q8NFF5 whole entry): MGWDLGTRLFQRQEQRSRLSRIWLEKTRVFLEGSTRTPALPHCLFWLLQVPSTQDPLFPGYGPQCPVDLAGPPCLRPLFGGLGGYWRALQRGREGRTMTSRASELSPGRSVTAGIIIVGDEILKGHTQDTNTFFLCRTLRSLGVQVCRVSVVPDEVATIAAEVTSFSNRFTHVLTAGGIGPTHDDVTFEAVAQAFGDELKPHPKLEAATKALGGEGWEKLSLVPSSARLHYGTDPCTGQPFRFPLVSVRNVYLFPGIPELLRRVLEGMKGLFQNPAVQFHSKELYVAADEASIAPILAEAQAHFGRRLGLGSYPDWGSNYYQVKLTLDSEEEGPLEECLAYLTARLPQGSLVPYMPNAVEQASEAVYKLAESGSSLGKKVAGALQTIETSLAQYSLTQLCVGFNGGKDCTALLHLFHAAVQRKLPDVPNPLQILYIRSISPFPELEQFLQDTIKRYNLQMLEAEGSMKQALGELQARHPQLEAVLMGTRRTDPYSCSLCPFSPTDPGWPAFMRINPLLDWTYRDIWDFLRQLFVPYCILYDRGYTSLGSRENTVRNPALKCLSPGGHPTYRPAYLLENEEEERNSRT
Sequence of EKC/KEOPS complex subunit LAGE3 (Homo sapiens) (Q14657 whole entry, one chain of several): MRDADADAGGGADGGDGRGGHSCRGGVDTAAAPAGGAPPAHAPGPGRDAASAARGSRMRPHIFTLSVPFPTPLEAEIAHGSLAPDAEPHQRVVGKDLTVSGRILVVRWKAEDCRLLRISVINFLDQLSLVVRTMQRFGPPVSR
Sequence of Tektin-1 (Homo sapiens) (Q969V4 whole entry): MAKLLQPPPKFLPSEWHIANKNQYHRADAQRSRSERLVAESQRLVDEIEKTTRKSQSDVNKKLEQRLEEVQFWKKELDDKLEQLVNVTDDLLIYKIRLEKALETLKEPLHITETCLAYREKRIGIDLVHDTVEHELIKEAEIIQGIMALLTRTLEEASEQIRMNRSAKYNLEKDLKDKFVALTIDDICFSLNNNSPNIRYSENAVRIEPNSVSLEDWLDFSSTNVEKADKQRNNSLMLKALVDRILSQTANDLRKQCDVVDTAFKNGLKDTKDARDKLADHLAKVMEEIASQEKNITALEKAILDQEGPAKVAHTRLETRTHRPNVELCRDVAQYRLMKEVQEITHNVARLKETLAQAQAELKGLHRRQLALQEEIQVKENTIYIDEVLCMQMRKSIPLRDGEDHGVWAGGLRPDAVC
Sequence of Macrophage migration inhibitory factor (Homo sapiens) (P14174 whole entry): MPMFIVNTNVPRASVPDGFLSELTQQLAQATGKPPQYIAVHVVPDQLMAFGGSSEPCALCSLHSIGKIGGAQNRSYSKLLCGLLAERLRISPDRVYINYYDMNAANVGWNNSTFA
Sequence of Ras suppressor protein 1 (Homo sapiens) (Q15404 whole entry): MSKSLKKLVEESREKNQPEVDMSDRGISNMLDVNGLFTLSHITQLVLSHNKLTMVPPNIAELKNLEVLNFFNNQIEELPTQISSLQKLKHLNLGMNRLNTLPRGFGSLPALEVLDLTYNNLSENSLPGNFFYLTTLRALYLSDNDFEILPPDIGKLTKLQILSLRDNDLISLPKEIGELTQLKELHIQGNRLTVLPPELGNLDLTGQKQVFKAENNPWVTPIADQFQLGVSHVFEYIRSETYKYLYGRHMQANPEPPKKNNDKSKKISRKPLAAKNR
Sequence of Brefeldin A-inhibited guanine nucleotide-exchange protein 1 (Homo sapiens) (Q9Y6D6 whole entry): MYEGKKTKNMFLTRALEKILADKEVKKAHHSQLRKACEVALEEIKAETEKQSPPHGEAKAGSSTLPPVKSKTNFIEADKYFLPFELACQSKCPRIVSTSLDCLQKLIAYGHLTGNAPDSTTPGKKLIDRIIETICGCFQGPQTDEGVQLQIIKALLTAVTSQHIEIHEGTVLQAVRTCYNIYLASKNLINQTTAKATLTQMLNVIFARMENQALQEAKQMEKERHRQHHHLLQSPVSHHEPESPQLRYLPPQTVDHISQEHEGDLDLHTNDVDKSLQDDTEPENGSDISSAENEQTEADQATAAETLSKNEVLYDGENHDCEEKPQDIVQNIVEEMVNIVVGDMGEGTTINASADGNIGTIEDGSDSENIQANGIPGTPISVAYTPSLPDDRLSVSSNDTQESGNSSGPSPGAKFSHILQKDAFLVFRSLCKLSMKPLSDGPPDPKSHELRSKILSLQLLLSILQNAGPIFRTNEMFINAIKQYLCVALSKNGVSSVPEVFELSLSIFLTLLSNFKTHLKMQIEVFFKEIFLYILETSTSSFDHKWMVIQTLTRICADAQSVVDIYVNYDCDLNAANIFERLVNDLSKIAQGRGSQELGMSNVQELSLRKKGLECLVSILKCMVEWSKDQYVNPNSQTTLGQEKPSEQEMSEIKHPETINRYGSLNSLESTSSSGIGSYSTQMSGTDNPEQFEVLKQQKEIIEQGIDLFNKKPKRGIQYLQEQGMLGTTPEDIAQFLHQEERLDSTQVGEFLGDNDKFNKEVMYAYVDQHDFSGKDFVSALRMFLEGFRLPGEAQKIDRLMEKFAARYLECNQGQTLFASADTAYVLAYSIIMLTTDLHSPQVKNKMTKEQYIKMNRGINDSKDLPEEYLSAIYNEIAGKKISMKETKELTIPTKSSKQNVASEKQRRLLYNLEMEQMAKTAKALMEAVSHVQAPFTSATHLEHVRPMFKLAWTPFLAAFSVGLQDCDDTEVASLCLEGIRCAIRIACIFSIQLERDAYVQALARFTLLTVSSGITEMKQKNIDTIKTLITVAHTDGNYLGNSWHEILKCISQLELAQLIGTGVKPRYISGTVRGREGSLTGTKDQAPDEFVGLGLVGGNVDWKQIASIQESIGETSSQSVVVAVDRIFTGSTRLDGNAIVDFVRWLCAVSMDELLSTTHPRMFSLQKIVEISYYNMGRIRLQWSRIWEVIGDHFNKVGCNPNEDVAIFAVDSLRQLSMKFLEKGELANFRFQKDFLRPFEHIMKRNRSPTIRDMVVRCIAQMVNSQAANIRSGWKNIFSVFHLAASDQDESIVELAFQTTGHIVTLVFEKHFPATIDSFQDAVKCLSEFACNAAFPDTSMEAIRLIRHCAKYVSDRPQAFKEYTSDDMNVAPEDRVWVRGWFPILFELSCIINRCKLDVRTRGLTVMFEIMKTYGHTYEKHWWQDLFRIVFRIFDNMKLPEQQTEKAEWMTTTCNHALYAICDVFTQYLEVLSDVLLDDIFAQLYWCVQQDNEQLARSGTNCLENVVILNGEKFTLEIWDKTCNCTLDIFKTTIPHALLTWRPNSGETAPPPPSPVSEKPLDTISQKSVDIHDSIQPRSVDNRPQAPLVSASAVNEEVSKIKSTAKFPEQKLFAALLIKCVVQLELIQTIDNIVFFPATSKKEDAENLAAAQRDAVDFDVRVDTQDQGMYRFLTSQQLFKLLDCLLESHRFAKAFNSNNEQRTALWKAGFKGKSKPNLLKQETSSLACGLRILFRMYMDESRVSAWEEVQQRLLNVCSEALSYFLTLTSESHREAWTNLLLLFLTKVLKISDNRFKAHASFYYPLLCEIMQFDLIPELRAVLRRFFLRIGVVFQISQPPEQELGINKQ
Sequence of Stearoyl-CoA desaturase (Homo sapiens) (O00767 whole entry, the tested form may be a part): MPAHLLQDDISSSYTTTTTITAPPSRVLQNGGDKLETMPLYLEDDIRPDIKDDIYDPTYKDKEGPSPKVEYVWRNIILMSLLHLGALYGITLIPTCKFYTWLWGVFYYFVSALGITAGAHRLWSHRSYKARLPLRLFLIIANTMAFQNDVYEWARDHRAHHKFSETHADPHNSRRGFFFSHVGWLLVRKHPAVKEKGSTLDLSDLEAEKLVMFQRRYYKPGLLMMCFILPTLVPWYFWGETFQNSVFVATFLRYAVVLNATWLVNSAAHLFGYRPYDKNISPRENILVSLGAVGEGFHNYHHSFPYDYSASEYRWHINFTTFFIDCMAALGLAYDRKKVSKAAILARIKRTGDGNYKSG
Sequence of Parathymosin (Homo sapiens) (P20962 whole entry): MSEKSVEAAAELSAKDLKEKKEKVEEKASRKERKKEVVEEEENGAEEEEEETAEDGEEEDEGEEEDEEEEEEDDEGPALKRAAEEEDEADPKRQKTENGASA
Sequence of E3 ubiquitin-protein ligase RBX1 (Homo sapiens) (P62877 whole entry, looked up): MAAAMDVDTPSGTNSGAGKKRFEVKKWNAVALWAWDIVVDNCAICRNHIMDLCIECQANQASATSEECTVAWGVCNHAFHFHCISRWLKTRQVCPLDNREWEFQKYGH

`Cc1ccc(C(=O)Nc2cccc(C(F)(F)F)c2)cc1Nc1nc(-c2cccnc2)nc2c1cnn2C`: the ED50 in [1] is 0.00634 µM; in test [2] it was 676 µM; in [3], 131 µM; in test [4], 0.998 µM; in test [5] it was 0.115 µM; in [6], 0.0394 µM. In addition, the ED50 was found to be 4.33 µM in [7]; 21.2 µM in test [8]; 93.4 µM in [9]; 0.175 µM in test [10]; 7.69 µM in test [11]; 0.0971 µM in test [12]. The ED50 came out at 10.3 µM in test [13]; 1.99 µM in test [14]; 10.4 µM in [15]; 95.8 µM in [16]; 0.00397 µM in [17]; 0.0118 µM in [18]. Also, the ED50 in test [19] turned out to be 2.98 µM; in test [20], 0.00224 µM; in test [21] it was 0.000533 µM; in test [22] it was 0.0475 µM; in test [23], 18 µM; in test [24] it was 5.36 µM. Further, the ED50 in test [25] amounted to 0.169 µM; in test [26], 3.87 µM; in [27], 0.00594 µM; in test [28], 0.0567 µM; in [29], 3.23 µM; in [30], 83 µM. Besides, the ED50 in test [31] is 2.87 µM; in test [32], 0.00584 µM; in test [33], 217 µM; in [34] it was 44 µM; in test [35], 0.00465 µM; in test [36], 16.9 µM. In [37], the ED50 turned out to be 13.6 µM.
As for `Cc1ccc(C(=O)Nc2cccc(C(F)(F)F)c2)cc1Nc1nc(-c2cccnc2)nc2nn(C)cc12`, the ED50 in [38] came out at 0.09 µM; in test [39], 6770 µM; in test [40], 0.19 µM; in test [41], 1250 µM; in test [42] it was 0.137 µM; in [43], 0.535 µM. In addition, the ED50 in test [44] was determined as 26.8 µM; in [45], 0.516 µM; in test [46], 0.0508 µM; in test [47] it was 0.00823 µM; in test [48], 0.000253 µM.

(Values after ChEMBL document CHEMBL5649169 (ChemMedChem, 2018).)
